target: skeletal myofibrils (myosin ATPase activity); test: Skeletal Myofibril ATPase Assay; format: biochemical; conditions: PK-LDH coupled, absorbance at 340 nm
Summary of the method: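 Skeletal myofibril ATPase measured by PK-LDH-coupled NADH depletion at 340 nm, read every 1.5–2 min for 1 h; pCa buffer with PIPES/CaCl2/EGTA, pH 7.0. Rate taken as max–min absorbance, normalised to 1% DMSO vehicle (100%) and no change (0%); IC50 from four-parameter fit, bottom ≥0.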

IC50, < 10 µM:
O=c1ccc(-c2cnc(OCC(F)(F)F)nc2)nn1Cc1cncc(F)n1 [Compound 118, 2-((6-fluoropyrazin-yl)methyl)-6-(2-(2,2,2-trifluoroethoxy)pyrimidin-5-yl)pyridazin-3(2H)-one]
O=c1ccc(-c2cnc(OCC3CC3)nc2)nn1Cc1cncc(F)c1 [Compound 119, 6-(2-(cyclopropylmethoxy)pyrimidin-5-yl)-2-((5-fluoropyridin-3-yl)methyl)pyridazine-3(2H)-one]
CC[C@H](C)Oc1ncc(-c2ccc(=O)n(Cc3cncc(F)c3)n2)cn1 [Compound 120, (S)-6-(2-(sec-butoxy)pyrimidin-5-yl)-2((5-fluropyridin-3-yl)methyl)pyridazine-3(2H)-one]
CC(C)(F)COc1ncc(-c2ccc(=O)n(Cc3cncc(F)c3)n2)cn1 [Compound 121, 6-(2-(2-fluoro-2-methylpropoxy)pyrimidin-5-yl)-2-((5-f1uoropyridin-3-yl)methyl)pyridazine-3(2H)-one]
O=c1ccc(-c2cnc(OCC(F)(F)F)nc2)nn1Cc1cnc(C2CCC2)s1 [Compound 122, 2-((2-cyclobutylthiazol-5-yl)methyl)-6-(2-(2,2,2-trifluoroethoxy)pyrimidin-5-yl)pyridazine-3(2H)-one]
CSC(C)COc1ncc(-c2ccc(=O)n(Cc3cncc(F)c3)n2)cn1 (stereo not drawn) [Compound 123, 2((5-fluoropyridin-3-yl)methyl)-6-(2-(2-(methylthio)propoxy)pyrimidin-5-yl)pyridazine-3(2H)-one]
CCc1ncc(Cn2nc(-c3cnc(OCC(C)C)nc3)ccc2=O)s1 [Compound 124, 2-((2-ethylthiazol-5-yl)methyl)-6-(2-isobutoxypyrimidin-5-yl)pyridazine-3(2H)-one]
COC(C)(C)COc1ncc(-c2ccc(=O)n(Cc3cncc(F)c3)n2)cn1 [Compound 125, 2-((5-fluoropyridin-3-yl)methyl)-6-(2-(2-methoxy-2-methylpropoxy)pyrimidin-5-yl)pyridazine-3(2H)-one]
O=c1ccc(-c2cnc(OCC3CCC3)nc2)nn1Cc1cncc(F)c1 [Compound 126, 6-(2-(cyclobutylmethoxy)pyrimidin-5-yl)-2-((5-fluoropyridin-3-yl)methyl)pyridazine-3(2H)-one]
CC[C@@H](C)Oc1ncc(-c2ccc(=O)n(Cc3cncc(F)c3)n2)cn1 [Compound 127]
COc1cncc(Cn2nc(-c3cnc(OCC(F)(F)F)nc3)ccc2=O)c1 [Compound 128, 2-((5-methoxypyridin-3-yl)methyl)-6-(2-(2,2,2-trifluoroethoxy)pyrimidin-5-yl)pyridazine-3(2H)-one]
CCc1ncc(Cn2nc(-c3cnc(OCC(C)(F)F)nc3)ccc2=O)s1 [Compound 129, 6-(2-(2,2-difluoropropoxy)pyrimidin-5-yl)-2((2-ethylthiazol-5-yl)methyl)pyridazine-3(2H)-one]
Cc1ncc(Cn2nc(-c3cnc(OCC(C)C)nc3)ccc2=O)s1 [Compound 130, 6-(2-isobutoxypyrimidin-5-yl)-2-((2-methylthiazol-5-yl)methyl)pyridazine-3(2H)-one]
[2H]C(C)(C)COc1ncc(-c2ccc(=O)n(Cc3cncc(F)c3)n2)cn1 [Compound 131, 2-((5-fluoropyridin-3-yl)methyl)-6-(2-(2-methylpropoxy-2-d)pyrimidin-5-yl)pyridazin-3(2H)-one]
COc1ccc(Cn2nc(-c3cnc(OCC(F)(F)F)nc3)ccc2=O)cn1 [Compound 132, 2-((6-methoxypyridin-3-yl)methyl)-6-(2-(2,2,2-trifluoroethoxy)pyrimidin-5-yl)pyridazine-3(2H)-one]

Source: patent publication US11873290B2, “Pyridazinone compounds and uses thereof” (Edgewise Therapeutics, Inc., priority 2018, dated 2024)
